Test results as given in patent publication US9233107B2, “Compositions and methods for the treatment of progressive multifocal leukoencephalopathy (PML)” (Biogen MA Inc., priority 2007, dated 2016).
Where a name gives a salt, the structure may show the parent alone. Read-outs that look alike come from different tables or passages of the source.

Tests used:
[1] = tested on: JCV strain Mad1/SVEΔ; test: microbe, parasite or virus in culture; assay type: cell-based, JC polyomavirus (JCV); conditions: for inhibition at 10 µM / IC50: JC polyomavirus
Procedure: (§1) SV40 transformed glial cells were seeded in 10% FBS media. The cells were seeded at 2000 cells per well in 75 μl of media per well. On day 2, the media was removed and replaced by 35 μl of a 1× concentrated drug aliquot combined with a 100× diluted JCV Turbo aliquot in 35 μl of 2% FBS media (JCV Turbo is a hybrid Mad-1/SVEΔ virus constructed by insertion of the regulatory region of SV40 into the regulatory region of the Mad-1 strain of JCV (Mad-1/SVE), Vacante et al., Virology 1989, 170: 353-361). The cells were incubated for an hour, after which another 65 uL aliquot of 1× concentrated drug in 2% FBS was added. On day 5 the cells were stained with DAPI (for total cell number) and with a mouse monoclonal antibody against SV40 VP1, which cross reacts with the JCV VP1 protein. […] The information is tabulated as % inhibition (as measured by the number and percentage of JCV positive cells).
(§2) JCV Infectivity Assay: SVG-A cells were seeded at 2,000 cells/well/0.075 ml of culture media in 96 flat-bottom well plate (Corning, N.Y.). The next day compounds were prepared in assay medium (2% heat-inactivated fetal bovine serum, 4 mM L-glutamine, 1×MEM). A master viral plate was prepared by mixing equal volumes of [2×] compound and [2×] diluted virus for the final 1× concentration of the compound and the virus. The plate containing cells was gently inverted and shaken to remove media. From the master plate, 0.035 ml compound/virus was added to designated wells. The cells were incubated with the compound/virus mixture for 60 minutes in a humidified 37° C. CO2 incubator. At that time final concentration of the drug in media was added to designated wells to bring the final volume up to 0.1 ml/well. The plates were incubated for an additional three days, the cells were then washed once with 1×PBS, and fixed in 2% paraformaldehyde/1×PBS for 30 minutes at room temperature. The fixative was removed and the cells were solubilized with 0.5% Triton X100 in PBS for an additional 30 minutes. Infection by Mad-1/SVEΔ virus was visualized by staining with PAB597, a monoclonal antibody against the major capsid protein VP1, the cells were incubated with 0.05 ml of PAB597 (2 μg/ml in 1×PBS) for 60 minutes at 37° C. Following a wash step with 1×PBS, primary antibody was detected with an Alexa-Fluor 488-labeled goat anti-mouse secondary antibody at 1:100 dilution in 1×PBS, cells were counterstained with DAPI at 1 μg/ml (0.05 ml/well) for 30 minutes at 37° C. Cells were washed with 1×PBS and 0.1 ml 1×PBS was added to cells. Field images of each well were acquired and analyzed using the Cellomics ArrayScan (Thermo Scientific Inc, Waltham, Mass.) using the Target Activation software. […] The cells are seeded at 4,000 cells/well/0.075 ml of culture media in 96 flat-bottom well plate (Corning). The culture media is used for the infection. The length of the infection is six to ten days (instead of the three days for SVG-A cells).
Calculations: The rate of JCV infection was calculated by normalizing the number of JCV infected cells by the total number of nucleated cells as % JCV^+ cells=((total # VP1^+ cells)/(total # DAPI^+ cells))*100%. The % of viral inhibition by a compound was calculated using a JCV infection rate instead of using total number of JCV infected cells (e.g., VP1^+ cells).

[2] = tested on: SVG-A cells; test: Total cell number (DAPI+ events) / cytotoxicity in the JCV infectivity assay; conditions: for inhibition at 10 µM: Homo sapiens, SVG-A, read-out: % Inhibition total Cell Number @10 uM
Procedure: as §1, §2
(§3) The primary assay employed an SVG-A cell line and JCV Mad1/SVEΔ viral strain.

[3] = in vitro; conditions: human
Procedure: as §1, §2, §3

[4] = tested on: JCV strain Mad-4; test: JCV strain Mad-4 infection of SVG-A cells; assay type: cell-based, JC polyomavirus (JCV); conditions: 5 independent experiments
[5] = tested on: Mad1/SVEΔ JCV; test: JCV infection of primary human fetal astrocytes; assay type: cell-based, JC polyomavirus (JCV)
Procedure: CO2 incubator. […] The culture media is used for the infection.
FIG. 5A illustrates SVG-A cells with Mad1/SVEΔ JCV (n=12) virus. FIG. 5B illustrates primary human fetal astrocytes with Mad1/SVEΔ JCV.
Since during PML many cells are already infected with JC virus, in some embodiments a drug candidate for treatment of PML may be selected as one that can inhibit viral life cycle in already infected cells. […] In FIG. 7 various concentration of the drug were added to the culture of primary human fetal astrocytes infected with JC virus at the same time as virus (circles; T=0), 3 hours after virus addition (squires; T=3 h), or 24 hours after (triangles; T=24 h). Ten days after infection with the virus cells were fixed and number of virally infected cells was enumerated. Results of a representative experiment out of 4 different experiments with primary astrocytes or SVG-A cells are shown.

[6] = tested on: JCV DNA replication; test: JCV DNA replication by qPCR (TAg probe) in SVG-A cells; assay type: cell-based, JC polyomavirus (JCV); conditions: 3 days after infection, compared with infection rate inhibition
[7] = published PK data, cited from earlier work
[8] = human, in vivo
Text: The published literature was reviewed for information on pharmacokinetics and brain distribution of these drugs in humans and in animal models. Since JC virus uncontrollably replicates in the oligodendrocytes and astrocytes of the effected individuals during PML but not all drugs are capable of crossing blood brain barrier it would be advantageous for any potential PML therapy if the drug candidate is capable of achieving efficacious concentration in the brain.

[9] = # animal data; published PK data; cited from earlier work
[10] = Glial cell, read-out: % Inhibition (total #JCV+) @10 uM
[11] = SVG-A, read-out: % Inhibition (% JCV+) @10 uM

Compound	inhibition at 10 µM [1, 10] [%]	IC50 ([1]; SVG-A) [µM]	inhibition at 10 µM [1, 11] [%]	inhibition at 10 µM [2] [%]	CC50 at 3 days [3] [µM]	CC50 [3] [µM]	inhibition of Mad4 infection of SVG-A cells, in words [4]	anti-JCV activity in presence of cerebrospinal fluid (CSF), in words ([1]; FIG. 10)	IC50 ([1]; SVG-A, read-out: IC50 (in vitro efficacious concentration)) [µM]	inhibition of JCV infection of primary human fetal astrocytes, in words ([5]; compared with SVG-A cells)	inhibition of cell infection when added 3 or 24 hours post infection, in words ([5]; primary human fetal astrocytes, read ten days after infection)	percent of JCV DNA inhibition, in words [6]	Inhibition of total cell numbers (DAPI+ events) ([2]; at the drug concentrations of the dose response curves)	CC50 ([2]; human, 3 days) [µM]	Cmax ([7]; read-out: plasma Cmax) [µM]	Brain concentration, approximated [8] [µM]	Brain [9] [µg/mL]	plasma Cmax [7] [ng/mL]
COc1ccc([C@@H]2Sc3ccccc3N(CCN(C)C)C(=O)[C@@H]2OC(C)=O)cc1 [DILTIAZEM HYDROCHLORIDE]	20	8.5	24	-4	> 40	–	–	–	–	–	–	–	–	–	–	–	–	–
Cc1nccc2c1[nH]c1ccccc12 [HARMANE]	24	14.4	22	4	–	> 40	–	–	–	–	–	–	–	–	–	–	–	–
COc1cc(C)c2c(=O)c(-c3ccccc3)coc2c1 [METHOXYVONE]	38	17.2	27	15	–	> 40	–	–	–	–	–	–	–	–	–	–	–	–
CCC(=O)Nc1ccc(Cl)c(Cl)c1 [PROPANIL]	12	7.8	21	-12	> 40	–	–	–	–	–	–	–	–	–	–	–	–	–
OC(c1cc(C(F)(F)F)nc2c(C(F)(F)F)cccc12)C1CCCCN1 (racemic) [MEFLOQUINE, [2,8-bis(trifluoromethyl)quinolin-4-yl]-piperidin-2-ylmethanol]	66	4	64	5	–	–	the same efficacy as Mad1/SVEΔ infection	not inhibited by cerebrospinal fluid (CSF)	3.9 ± 2.1	essentially the same efficacy as it inhibits viral infection in SVG-A cells	just as effective at inhibiting cell infection as it was when added to the cells together with the virus	almost overlaps the percent of infection rate inhibition	less than 20%	16.1	6	35 to 50	–	–
Cc1c(Nc2ncccc2C(=O)O)cccc1C(F)(F)F [FLUNIXIN MEGLUMINE]	30	16.6	33	-4	–	47.7	–	–	–	–	–	–	–	–	–	–	–	–
Cc1cccc(Nc2ccccc2C(=O)O)c1C [MEFENAMIC ACID]	29	10.9	29	0	–	–	–	–	–	–	–	–	–	–	–	–	0.8	10000 to 20000
